SMILES strings stand for the structures. pKd: −log10 of the molar value.

As a reminder, the pKd is −log10 of the Kd, conventionally taken in molar units. The low end stands for a high Kd, the high end for a low Kd.

Experiment [1] has as its target Somatostatin receptor type 1 (Rattus norvegicus, UniProt P28646). Kind of experiment: Displacement of [125I]SRIF14 from rat sst1 receptor from rat brain cortex membrane. (In a radioligand displacement assay an active substance lowers the binding of a labelled ligand.)
The target of experiment [2] is Somatostatin receptor type 2 (Rattus norvegicus, UniProt P30680). Kind of experiment: Displacement of [125I]SRIF14 from rat sst2 receptor from rat brain cortex membrane.
Chain of Somatostatin receptor type 2 (P30680 whole entry): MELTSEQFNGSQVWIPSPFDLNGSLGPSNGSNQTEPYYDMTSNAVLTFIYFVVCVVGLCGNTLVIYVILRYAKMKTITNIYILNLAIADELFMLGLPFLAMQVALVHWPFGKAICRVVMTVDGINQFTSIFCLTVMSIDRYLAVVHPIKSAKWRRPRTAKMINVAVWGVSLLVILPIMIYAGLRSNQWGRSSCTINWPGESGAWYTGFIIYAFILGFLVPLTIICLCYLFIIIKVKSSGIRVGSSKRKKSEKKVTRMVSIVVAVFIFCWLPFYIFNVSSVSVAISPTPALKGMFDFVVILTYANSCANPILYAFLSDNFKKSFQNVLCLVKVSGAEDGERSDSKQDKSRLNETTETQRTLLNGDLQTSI

Chain of Somatostatin receptor type 1 (P28646 whole entry): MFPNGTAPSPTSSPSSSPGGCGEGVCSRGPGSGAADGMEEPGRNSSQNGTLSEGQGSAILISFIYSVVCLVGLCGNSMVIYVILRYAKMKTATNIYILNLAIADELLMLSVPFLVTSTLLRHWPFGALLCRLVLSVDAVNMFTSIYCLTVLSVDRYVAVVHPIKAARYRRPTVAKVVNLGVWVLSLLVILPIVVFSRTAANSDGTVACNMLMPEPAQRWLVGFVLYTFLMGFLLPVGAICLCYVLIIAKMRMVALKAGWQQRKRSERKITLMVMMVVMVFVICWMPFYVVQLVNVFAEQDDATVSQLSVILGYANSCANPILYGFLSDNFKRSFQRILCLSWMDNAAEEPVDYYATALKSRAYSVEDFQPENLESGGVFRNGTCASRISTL

Turning to `CCN(CC)C(=O)c1ccc(N2CCN(C(=O)[C@@H]3C[C@@H]4Cc5c(cccc5OC)C[C@H]4N(C)C3)CC2)cc1`, the pKd is 5.77 in experiment [1] and 4.70 in experiment [2].

Turning to `COc1cccc2c1C[C@H]1C[C@@H](C(=O)N3CCN(c4ccc(C#N)cn4)CC3)CN(C)[C@@H]1C2`, the pKd in experiment [1] was 8.45; in experiment [2], 4.99.

Regarding `COc1cccc2c1C[C@H]1C[C@@H](C(=O)N3CCN(c4ccc(S(C)(=O)=O)cc4)CC3)CN(C)[C@@H]1C2`, the pKd in experiment [1] is 6.20; in experiment [2] it was 5.06.

Turning to `COc1cccc2c1C[C@H]1C[C@@H](C(=O)N3CCN(c4cccc(OCc5ccccc5)n4)CC3)CN(C)[C@@H]1C2`, the pKd is 6.98 in experiment [1] and 5.18 in experiment [2].

Regarding `COc1cccc2c1C[C@H]1C[C@@H](C(=O)N3CCN(c4ccc(C(N)=O)cc4)CC3)CN(C)[C@@H]1C2`, the pKd in experiment [1] was 5.82; in experiment [2] it was 4.78.

Consider `COc1cccc2c1C[C@H]1C[C@@H](C(=O)N3CCN(c4ccc(C#N)cc4)CC3)CN(C)[C@@H]1C2`, for which the pKd in experiment [1] is 8.09; in experiment [2], 5.00.

For `COc1cccc2c1C[C@H]1C[C@@H](C(=O)N3CCN(c4ccc5nccnc5n4)CC3)CN(C)[C@@H]1C2`, the values for the pKd in experiment [1] and in experiment [2] were 8.24 and 4.85, respectively.

As for `COc1cccc2c1C[C@H]1C[C@@H](C(=O)N3CCN(c4cccc5nsnc45)CC3)CN(C)[C@@H]1C2`, the results for the pKd in experiment [1] and in experiment [2] were 8.56 and 5.00, respectively.

With `COc1cccc2c1C[C@H]1C[C@@H](C(=O)N3CCN(c4ccc(F)cc4)CC3)CN(C)[C@@H]1C2`, the pKd was 8.47 in experiment [1] and 4.58 in experiment [2].

For `COc1cccc2c1C[C@H]1C[C@@H](C(=O)N3CCC(n4c(=O)[nH]c5ccccc54)CC3)CN(C)[C@@H]1C2`, the pKd in experiment [1] is 6.31; in experiment [2] it was 5.69.

As for `COc1cccc2c1C[C@H]1C[C@@H](C(=O)N3CCN(c4ccccc4C#N)CC3)CN(C)[C@@H]1C2`, the pKd in experiment [1] was 8.70; in experiment [2], 5.13.

In the case of `COc1cccc2c1C[C@H]1C[C@@H](C(=O)N3CCN(c4cccc(=O)n4C)CC3)CN(C)[C@@H]1C2`, the pKd in experiment [1] is 8.74; in experiment [2], 4.96.

For `COc1cccc2c1C[C@H]1C[C@@H](C(=O)N3CCN(c4ccc(C(C)=O)cc4)CC3)CN(C)[C@@H]1C2`, the figures for the pKd in experiment [1] and in experiment [2] were 6.82 and 5.06, respectively.

With `COc1cccc2c1C[C@H]1C[C@@H](C(=O)N3CCN(c4ncccn4)CC3)CN(C)[C@@H]1C2`, the pKd was 6.33 in experiment [1] and 4.56 in experiment [2].

Turning to `COc1cccc2c1C[C@H]1C[C@@H](C(=O)N3CCN(c4cccc5ccccc45)CC3)CN(C)[C@@H]1C2`, the pKd in experiment [1] is 7.06; in experiment [2] it was 5.26.

As for `COc1cccc2c1C[C@H]1C[C@@H](C(=O)N3CCN(c4cccc(F)c4C#N)CC3)CN(C)[C@@H]1C2`, the results for the pKd in experiment [1] and in experiment [2] were 8.55 and 4.78, respectively.

For `COc1cccc2c1C[C@H]1C[C@@H](C(=O)N3CCCN(c4ccc([N+](=O)[O-])cc4)CC3)CN(C)[C@@H]1C2`, the negative-log Kd (pKd) in experiment [1] is 6.58; in experiment [2] it was 4.65.

As for `COc1cccc2c1C[C@H]1C[C@@H](C(=O)N3CCN(c4ccc([N+](=O)[O-])cc4C#N)CC3)CN(C)[C@@H]1C2`, the results for the pKd in experiment [1] and in experiment [2] were 8.49 and 5.36, respectively.

For `COc1cccc2c1C[C@H]1C[C@@H](C(=O)N3CCN(c4ccc(C(=O)O)cc4)CC3)CN(C)[C@@H]1C2`, the figures for the pKd in experiment [1] and in experiment [2] were 4.09 and 3.60, respectively.

As for `COc1cccc2c1C[C@H]1C[C@@H](C(=O)N3CC=C(c4ccccn4)CC3)CN(C)[C@@H]1C2`, the pKd in experiment [1] is 7.52; in experiment [2], 5.63.

Consider `COc1cccc2c1C[C@H]1C[C@@H](C(=O)N3CCN(c4cccc([N+](=O)[O-])c4)CC3)CN(C)[C@@H]1C2`, for which the pKd is 8.88 in experiment [1] and 5.17 in experiment [2].

For `COc1cccc2c1C[C@H]1C[C@@H](C(=O)N3CCN(c4ccccc4[N+](=O)[O-])CC3)CN(C)[C@@H]1C2`, the results for the pKd in experiment [1] and in experiment [2] were 8.89 and 4.96, respectively.

Consider `COc1cccc2c1C[C@H]1C[C@@H](C(=O)N3CCN(c4ccc(C(F)(F)F)cc4[N+](=O)[O-])CC3)CN(C)[C@@H]1C2`, for which the pKd in experiment [1] was 6.96; in experiment [2] it was 5.31.

On to `COc1cccc2c1C[C@H]1C[C@@H](C(=O)N3CCN(c4cccc5nonc45)CC3)CN(C)[C@@H]1C2`, for which the pKd is 8.44 in experiment [1] and 5.44 in experiment [2].

For `COc1cccc2c1C[C@H]1C[C@@H](C(=O)N3CCN(c4ccc(S(N)(=O)=O)cc4)CC3)CN(C)[C@@H]1C2`, the pKd is 6.23 in experiment [1] and 5.04 in experiment [2].

`COc1cccc2c1C[C@H]1C[C@@H](C(=O)N3CC=C(c4ncccn4)CC3)CN(C)[C@@H]1C2`: the negative-log Kd (pKd) in experiment [1] is 6.31; in experiment [2] it was 5.62.

With `COc1cccc2c1C[C@H]1C[C@@H](C(=O)N3CCN(c4ccc5ccccc5n4)CC3)CN(C)[C@@H]1C2`, the pKd in experiment [1] was 7.56; in experiment [2], 5.68.

As to `COc1cccc2c1C[C@H]1C[C@@H](C(=O)N3CCN(c4ccc5nonc5c4)CC3)CN(C)[C@@H]1C2`, the negative-log Kd (pKd) is 8.77 in experiment [1] and 5.46 in experiment [2].

Consider `COc1cccc2c1C[C@H]1C[C@@H](C(=O)N3CCN(c4ccccn4)CC3)CN(C)[C@@H]1C2`, for which the pKd in experiment [1] was 7.76; in experiment [2] it was 4.99.

With `COc1cccc2c1C[C@H]1C[C@@H](C(=O)N3CCCN(c4ccccn4)CC3)CN(C)[C@@H]1C2`, the pKd in experiment [1] was 6.68; in experiment [2], 4.46.

`COc1cccc2c1C[C@H]1C[C@@H](C(=O)N3CCNCC3)CN(C)[C@@H]1C2`: the pKd was 4.98 in experiment [1] and 4.36 in experiment [2].

In the case of `COc1cccc2c1C[C@H]1C[C@@H](C(=O)N3CCN(c4cc5nccnc5cn4)CC3)CN(C)[C@@H]1C2`, the pKd was 6.45 in experiment [1] and 5.15 in experiment [2].

Regarding `COc1cccc2c1C[C@H]1C[C@@H](C(=O)N3CCN(c4cccc5ccc(C#N)cc45)CC3)CN(C)[C@@H]1C2`, the negative-log Kd (pKd) in experiment [1] is 8.06; in experiment [2], 5.28.

As to `COc1cccc2c1C[C@H]1C[C@@H](C(=O)N3CCN(c4cc5ccccc5cn4)CC3)CN(C)[C@@H]1C2`, the pKd in experiment [1] is 6.54; in experiment [2] it was 5.26.

On to `COC(=O)c1ccc(N2CCN(C(=O)[C@@H]3C[C@@H]4Cc5c(cccc5OC)C[C@H]4N(C)C3)CC2)cc1`, for which the pKd in experiment [1] is 6.79; in experiment [2] it was 4.83.

Take `COc1cccc2c1C[C@H]1C[C@@H](C(=O)N3CCc4c([nH]c5ccccc45)C3)CN(C)[C@@H]1C2`: the pKd in experiment [1] is 7.15; in experiment [2], 5.21.

In the case of `COc1cccc2c1C[C@H]1C[C@@H](C(=O)N3CCN(c4ccc(O)cc4)CC3)CN(C)[C@@H]1C2`, the negative-log Kd (pKd) in experiment [1] was 6.20; in experiment [2], 4.61.

Regarding `COc1cccc2c1C[C@H]1C[C@@H](C(=O)N3CCN(c4ccccc4F)CC3)CN(C)[C@@H]1C2`, the pKd in experiment [1] is 7.75; in experiment [2] it was 4.73.

Consider `COc1cccc2c1C[C@H]1C[C@@H](C(=O)N3CCN(c4ccc(C(F)(F)F)cc4)CC3)CN(C)[C@@H]1C2`, for which the pKd in experiment [1] is 6.56; in experiment [2], 5.29.

For `O=[As][As+](=O)[O-]` (stereo not given) [ARSENIC TRIOXIDE], the pKd in experiment [1] was 7.28; in experiment [2], 4.60.

These data come from ChEMBL document CHEMBL1139995, “SAR of the arylpiperazine moiety of obeline somatostatin sst1 receptor antagonists” (Bioorg Med Chem Lett, 2007).
